In patent publication US20040175737A1, “Assay for RNase H activity” (Wyeth, priority 2002, published 2004):

Biological target: T1, HIV RT RNase H (Human immunodeficiency virus type 1 group M subtype B, UniProt P04585)
T1 construct: HIV p66/p51 heterodimer; purchased Enzyco, Inc. (Replidyne Inc., Louisville Colo.)
Assay: PAGE-based endpoint assay for HIV RT RNase H activity, titrated with single stranded RNA or DNA contaminants
Format: biochemical
Details: 5, 10 and 50 pmol RNA; molar ratios to RNA-DNA hybrid substrate 1:1, 2:1 and 10:1; 1 U HIV RT enzyme; 37° C.
From the text: RNase H. Samples of HIV p66/p51 heterodimer were obtained from Enzyco, Inc. (Replidyne Inc., Louisville Colo.) Methods for the recombinant expression, purification and characterization of this enzyme have been previously described (Thimmig & McHenry, J. Biol. Chem. 1993, 268:16528-16536). Purity of the enzyme samples was verified on polyacrylamide gels. […] Samples of E. coli RNase H1 were purchased from EPICENTR (Madison, Wis.).
Radiolabled RNA was generated by incorporating ^33P-ATP in the T7 RNA polymerase reaction, and annealed to an unlabeled ssDNA 49mer having the nucleotide sequence set forth in SEQ ID NO:2 (shown below). In an alternative version of these experiments, the complementary DNA oligonucleotide (SEQ ID NO:2) was radiolabeled with ^33P at the 5′ end by T4 PNK, and annealed to the unlabeled 29mer ssRNA (SEQ ID NO: 1).
Time dependent RNA degradation by RNase H. Aliquots containing 0.5 pmol of the radio-labeled DNA-RNA substrate ([…]) were incubated in Tris buffer (pH 8) with 10 mM MgCl2, KCl (between 0 and 30 mM), 3% glycerol, 0.2% NP-40, 50 μg/ml BSA and 1 mM DTT. […] The reaction products were analyzed by PAGE. […]

Row | Substance | inhibition of HIV RT RNase H activity (measured amount of end-labeled ssDNA after reaction)
1 | homopolymeric A: homopolymeric polyA, 5′-(A)n-3′, n ≈ 500 to 1000, SEQ ID NO:3 | did not inhibit
2 | homopolymeric U: homopolymeric polyU, 5′-(U)n-3′, n ≈ 500 to 1000, SEQ ID NO:4 | did not inhibit
